Data published in patent US9307766B2, “Isoxazoline derivatives as insecticidal compounds” (Syngenta Participations AG, priority 2011, dated 2016).

What was measured:
Type in all cases: in vivo
[1] = system: Tetranychus urticae; experiment: Tetranychus urticae (two-spotted spider mite) leaf disc spray test; conditions: foliar, 192 h, 200 ppm sprayed on bean leaf discs, mite populations of mixed ages, egg, larval and adult mortality 8 days later
From the text: Tetranychus urticae (Two-Spotted Spider Mite):
Bean leaf discs on agar in 24-well microtiter plates were sprayed with test solutions at an application rate of 200 ppm. After drying, the leaf discs are infested with mite populations of mixed ages. 8 days later, discs are checked for egg mortality, larval mortality, and adult mortality.

[2] = system: Heliothis virescens; experiment: Heliothis virescens (tobacco budworm) egg test on artificial diet; conditions: 96 h, 200 ppm (concentration in well 18 ppm) by pipetting, eggs 0-24 h old on artificial diet, egg mortality, larval mortality, growth regulation after 4 days
Protocol: Heliothis virescens (Tobacco Budworm):
Eggs (0-24 h old) were placed in 24-well microtiter plate on artificial diet and treated with test solutions at an application rate of 200 ppm (concentration in well 18 ppm) by pipetting. After an incubation period of 4 days, samples were checked for egg mortality, larval mortality, and growth regulation.

[3] = system: Thrips tabaci; experiment: Thrips tabaci (onion thrips) leaf disc spray test; conditions: foliar, 168 h, 200 ppm sprayed on sunflower leaf discs, thrip population of mixed ages, mortality after 7 days
Protocol: Thrips tabaci (Onion Thrips):
Sunflower leaf discs were placed on agar in a 24-well microtiter plate and sprayed with test solutions at an application rate of 200 ppm. After drying, the leaf discs were infested with a thrip population of mixed ages. After an incubation period of 7 days, samples were checked for mortality.

[4] = system: Plutella xylostella; experiment: Plutella xylostella (diamond back moth) artificial diet test; conditions: 144 h, 200 ppm (concentration in well 18 ppm) on artificial diet, L2 larvae, larval mortality and growth regulation after 6 days
Protocol: Plutella xylostella (Diamond Back Moth):
24-well microtiter plate (MTP) with artificial diet was treated with test solutions at an application rate of 200 ppm (concentration in well 18 ppm) by pipetting. After drying, the MTP's were infested with L2 larvae (7-12 per well). After an incubation period of 6 days, samples were checked for larval mortality and growth regulation.

[5] = system: Diabrotica balteata; experiment: Diabrotica balteata (corn root worm) artificial diet test; conditions: 120 h, 200 ppm (concentration in well 18 ppm) on artificial diet, L2 larvae, larval mortality and growth regulation after 5 days
Protocol: Diabrotica balteata (Corn Root Worm):
A 24-well microtiter plate (MTP) with artificial diet was treated with test solutions at an application rate of 200 ppm (concentration in well 18 ppm) by pipetting. After drying, the MTP's were infested with L2 larvae (6-10 per well). After an incubation period of 5 days, samples were checked for larval mortality and growth regulation.

[6] = system: Spodoptera littoralis; experiment: Spodoptera littoralis (Egyptian cotton leafworm) leaf disc spray test; conditions: foliar, 72 h, 200 ppm sprayed on cotton leaf discs, L1 larvae, mortality, feeding behavior, growth regulation 3 days after treatment
From the text: Spodoptera littoralis (Egyptian Cotton Leafworm):
Cotton leaf discs were placed on agar in a 24-well microtiter plate and sprayed with test solutions at an application rate of 200 ppm. After drying, the leaf discs were infested with 5 L1 larvae. The samples were checked for mortality, feeding behavior, and growth regulation 3 days after treatment (DAT).

Measured: pest or weed control at 200 ppm

O=C(NC1C[S+]([O-])C1)c1cnc(C2=NOC(c3cc(Cl)cc(Cl)c3)(C(F)(F)F)C2)c2ccccc12 (stereo not drawn) [Compound D16, 1-[5-(3,5-dichlorophenyl)-5-(trifluoromethyl)-4H-isoxazol-3-yl]-N-(1-oxothietan-3-yl)isoquinoline-4-carboxamide]
≥ 80%: all assays above
